Measured values: ChEMBL document CHEMBL1201862, “PubChem BioAssay data set” (2004)
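Method: 48-hour compound exposure of cells in 96-well plates, five concentrations, linear interpolation of endpoints. GI50 marks 50% less growth.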 Calls of active or inactive are those of the source. Rule as the data show it: active = GI50 up to about 1.1 µM and inactive = higher.

How the values were obtained:
Assay in all cases: DTP human tumour cell line panel, 48 h
CAKI-1 = system: CAKI-1
SK-MEL-2 = system: SK-MEL-2
A498 = system: A498
SK-MEL-5 = system: SK-MEL-5
RPMI-8226 = system: RPMI-8226
KM12 = system: KM12
SK-MEL-28 = system: SK-MEL-28
Malme-3M = system: Malme-3M
IGROV-1 = system: IGROV-1
PC-3 = system: PC-3
HOP-62 = system: HOP-62
A549 = system: A549
MOLT-4 = system: MOLT-4
NCI/ADR-RES = system: NCI/ADR-RES
MDA-N = system: MDA-N
LOX IMVI = system: LOX IMVI
MDA-MB-435 = system: MDA-MB-435
UACC-62 = system: UACC-62
EKVX = system: EKVX
NCI-H522 = system: NCI-H522
NCI-H226 = system: NCI-H226
SW-620 = system: SW-620
OVCAR-5 = system: OVCAR-5
RXF 393 = system: RXF 393
U-251 = system: U-251
SF-539 = system: SF-539
OVCAR-8 = system: OVCAR-8
UACC-257 = system: UACC-257
BT-549 = system: BT-549
TK-10 = system: TK-10
HCC 2998 = system: HCC 2998
M14 = system: M14
SN12C = system: SN12C
HT-29 = system: HT-29
OVCAR-3 = system: OVCAR-3
SNB-19 = system: SNB-19
HCT-116 = system: HCT-116
SF-295 = system: SF-295
786-0 = system: 786-0
ACHN = system: ACHN
COLO 205 = system: COLO 205
Hs-578T = system: Hs-578T
OVCAR-4 = system: OVCAR-4
K562 = system: K562
SF-268 = system: SF-268
HL-60 = system: HL-60
MCF7 = system: MCF7
MDA-MB-231 = system: MDA-MB-231
HCT-15 = system: HCT-15
T47D = system: T47D
NCI-H23 = system: NCI-H23
DU-145 = system: DU-145
CCRF-CEM = system: CCRF-CEM
SK-OV-3 = system: SK-OV-3
SR = system: SR
NCI-H460 = system: NCI-H460
SNB-75 = system: SNB-75
UO-31 = system: UO-31
HOP-92 = system: HOP-92

Compound: N#Cc1ccc(CSC2=C(c3ccc(Cl)cc3)S/C(=C3\SC(SCc4ccc(C#N)cc4)=C(c4ccc(Cl)cc4)S3)S2)cc1
- GI50 (CAKI-1): > 100 µM (inactive)
- GI50 (SK-MEL-2): > 100 µM (inactive)
- GI50 (A498): > 100 µM (inactive)
- GI50 (SK-MEL-5): > 100 µM (inactive)
- GI50 (RPMI-8226): > 100 µM (inactive)
- GI50 (KM12): > 100 µM (inactive)
- GI50 (SK-MEL-28): > 100 µM (inactive)
- GI50 (Malme-3M): > 100 µM (inactive)
- GI50 (IGROV-1): > 100 µM (inactive)
- GI50 (PC-3): > 100 µM (inactive)
- GI50 (HOP-62): > 100 µM (inactive)
- GI50 (A549): > 100 µM (inactive)
- GI50 (MOLT-4): > 100 µM (inactive)
- GI50 (NCI/ADR-RES): > 100 µM (inactive)
- GI50 (MDA-N): > 100 µM (inactive)
- GI50 (LOX IMVI): > 100 µM (inactive)
- GI50 (MDA-MB-435): > 100 µM (inactive)
- GI50 (UACC-62): > 100 µM (inactive)
- GI50 (EKVX): > 100 µM (inactive)
- GI50 (NCI-H522): > 100 µM (inactive)
- GI50 (NCI-H226): > 100 µM (inactive)
- GI50 (SW-620): > 100 µM (inactive)
- GI50 (OVCAR-5): > 100 µM (inactive)
- GI50 (RXF 393): > 100 µM (inactive)
- GI50 (U-251): > 100 µM (inactive)
- GI50 (SF-539): > 100 µM (inactive)
- GI50 (OVCAR-8): > 100 µM (inactive)
- GI50 (UACC-257): > 100 µM (inactive)
- GI50 (BT-549): > 100 µM (inactive)
- GI50 (TK-10): > 100 µM (inactive)
- GI50 (HCC 2998): > 100 µM (inactive)
- GI50 (M14): > 100 µM (inactive)
- GI50 (SN12C): > 100 µM (inactive)
- GI50 (HT-29): > 100 µM (inactive)
- GI50 (OVCAR-3): > 100 µM (inactive)
- GI50 (SNB-19): > 100 µM (inactive)
- GI50 (HCT-116): > 100 µM (inactive)
- GI50 (SF-295): > 100 µM (inactive)
- GI50 (786-0): > 100 µM (inactive)
- GI50 (ACHN): > 100 µM (inactive)
- GI50 (COLO 205): > 100 µM (inactive)
- GI50 (Hs-578T): > 100 µM (inactive)
- GI50 (OVCAR-4): > 100 µM (inactive)
- GI50 (K562): > 100 µM (inactive)
- GI50 (SF-268): > 100 µM (inactive)
- GI50 (HL-60): > 100 µM (inactive)
- GI50 (MCF7): > 100 µM (inactive)
- GI50 (MDA-MB-231): > 100 µM (inactive)
- GI50 (HCT-15): > 100 µM
- GI50 (T47D): > 100 µM (inactive)
- GI50 (NCI-H23): > 100 µM (inactive)
- GI50 (DU-145): > 100 µM (inactive)
- GI50 (CCRF-CEM): > 100 µM (inactive)
- GI50 (SK-OV-3): > 100 µM (inactive)
- GI50 (SR): > 100 µM (inactive)
- GI50 (NCI-H460): > 100 µM (inactive)

Compound: NC(=S)N/N=C1\c2ccccc2CCC1CCC1(O)CCc2ccccc2C1=O (centres undefined)
- GI50 (CAKI-1): 58.3 µM (inactive)
- GI50 (SK-MEL-5): 15 µM (inactive)
- GI50 (SNB-75): 15.7 µM (inactive)
- GI50 (RPMI-8226): 24.9 µM (inactive)
- GI50 (KM12): 26.9 µM (inactive)
- GI50 (SK-MEL-28): 20.7 µM (inactive)
- GI50 (Malme-3M): 19.8 µM (inactive)
- GI50 (IGROV-1): 37.8 µM (inactive)
- GI50 (PC-3): 31 µM (inactive)
- GI50 (HOP-62): 57.4 µM (inactive)
- GI50 (A549): 36.1 µM (inactive)
- GI50 (MOLT-4): 24.5 µM (inactive)
- GI50 (NCI/ADR-RES): 13.8 µM (inactive)
- GI50 (MDA-N): 25.2 µM (inactive)
- GI50 (LOX IMVI): 19.3 µM (inactive)
- GI50 (MDA-MB-435): 20.9 µM (inactive)
- GI50 (UACC-62): 17.8 µM (inactive)
- GI50 (EKVX): 11.4 µM (inactive)
- GI50 (UO-31): 12 µM (inactive)
- GI50 (SW-620): 28 µM (inactive)
- GI50 (OVCAR-5): 26 µM (inactive)
- GI50 (RXF 393): 16.2 µM (inactive)
- GI50 (U-251): 28.6 µM (inactive)
- GI50 (SF-539): 15.3 µM (inactive)
- GI50 (OVCAR-8): 16.6 µM (inactive)
- GI50 (UACC-257): 18 µM (inactive)
- GI50 (BT-549): 16.4 µM (inactive)
- GI50 (TK-10): 13.6 µM (inactive)
- GI50 (M14): 16.4 µM (inactive)
- GI50 (SN12C): 18.1 µM (inactive)
- GI50 (HT-29): 19.8 µM (inactive)
- GI50 (OVCAR-3): 18 µM (inactive)
- GI50 (SNB-19): 34.8 µM (inactive)
- GI50 (HCT-116): 18.7 µM (inactive)
- GI50 (SF-295): 23 µM (inactive)
- GI50 (ACHN): 35.5 µM (inactive)
- GI50 (COLO 205): 17.7 µM (inactive)
- GI50 (Hs-578T): 16.1 µM (inactive)
- GI50 (OVCAR-4): 34 µM (inactive)
- GI50 (K562): > 10 µM (inactive)
- GI50 (SF-268): 42.1 µM (inactive)
- GI50 (HL-60): 2.74 µM (inactive)
- GI50 (MCF7): 17.8 µM (inactive)
- GI50 (MDA-MB-231): 26.8 µM (inactive)
- GI50 (HCT-15): 39.7 µM
- GI50 (T47D): 4.04 µM (inactive)
- GI50 (NCI-H23): 25.5 µM (inactive)
- GI50 (DU-145): 37.8 µM (inactive)
- GI50 (CCRF-CEM): 22.6 µM (inactive)
- GI50 (SK-OV-3): > 100 µM (inactive)
- GI50 (SR): 35.2 µM (inactive)
- GI50 (NCI-H460): 16 µM (inactive)

Compound: COc1cc(OC)c2c(=O)c(OC)c(-c3ccc4c(c3)OCO4)oc2c1OC
- GI50 (CAKI-1): > 100 µM (inactive)
- GI50 (SK-MEL-2): > 100 µM (inactive)
- GI50 (A498): > 100 µM (inactive)
- GI50 (SK-MEL-5): 23.2 µM (inactive)
- GI50 (SNB-75): > 100 µM (inactive)
- GI50 (KM12): > 100 µM (inactive)
- GI50 (SK-MEL-28): > 100 µM (inactive)
- GI50 (Malme-3M): > 100 µM (inactive)
- GI50 (IGROV-1): > 100 µM (inactive)
- GI50 (PC-3): > 100 µM (inactive)
- GI50 (HOP-62): 91.8 µM (inactive)
- GI50 (A549): > 100 µM (inactive)
- GI50 (MOLT-4): 78.5 µM (inactive)
- GI50 (NCI/ADR-RES): > 100 µM (inactive)
- GI50 (MDA-N): > 100 µM (inactive)
- GI50 (LOX IMVI): 41.2 µM (inactive)
- GI50 (MDA-MB-435): > 100 µM (inactive)
- GI50 (UACC-62): 98.9 µM (inactive)
- GI50 (EKVX): 47 µM (inactive)
- GI50 (NCI-H522): 43.1 µM (inactive)
- GI50 (UO-31): > 100 µM (inactive)
- GI50 (NCI-H226): > 100 µM (inactive)
- GI50 (SW-620): > 100 µM (inactive)
- GI50 (OVCAR-5): > 100 µM (inactive)
- GI50 (RXF 393): > 100 µM (inactive)
- GI50 (U-251): > 100 µM (inactive)
- GI50 (SF-539): > 100 µM (inactive)
- GI50 (OVCAR-8): > 100 µM (inactive)
- GI50 (UACC-257): > 100 µM (inactive)
- GI50 (BT-549): > 100 µM (inactive)
- GI50 (TK-10): > 100 µM (inactive)
- GI50 (HCC 2998): > 100 µM (inactive)
- GI50 (M14): > 100 µM (inactive)
- GI50 (SN12C): > 100 µM (inactive)
- GI50 (HT-29): > 100 µM (inactive)
- GI50 (OVCAR-3): > 100 µM (inactive)
- GI50 (SNB-19): > 100 µM (inactive)
- GI50 (HCT-116): 83.9 µM (inactive)
- GI50 (SF-295): 91.4 µM (inactive)
- GI50 (786-0): > 100 µM (inactive)
- GI50 (ACHN): 83.8 µM (inactive)
- GI50 (COLO 205): 53.6 µM (inactive)
- GI50 (Hs-578T): > 100 µM (inactive)
- GI50 (K562): > 100 µM (inactive)
- GI50 (SF-268): > 100 µM (inactive)
- GI50 (HL-60): 6.82 µM (inactive)
- GI50 (MCF7): > 100 µM (inactive)
- GI50 (MDA-MB-231): 91.4 µM (inactive)
- GI50 (HCT-15): > 100 µM
- GI50 (HOP-92): 4.91 µM (inactive)
- GI50 (T47D): 41.8 µM (inactive)
- GI50 (NCI-H23): > 100 µM (inactive)
- GI50 (DU-145): 81.1 µM (inactive)
- GI50 (CCRF-CEM): 28.5 µM (inactive)
- GI50 (SK-OV-3): > 100 µM (inactive)
- GI50 (NCI-H460): > 100 µM (inactive)
